pIC50: −log10 of the molar value. Where a name gives a salt, the structure may show the parent alone. Read-outs that look alike come from different tables or passages of the source. A value given as a limit tells only on which side of the number the result lay.

Holding throughout (type): biochemical
For one test, the target named is T1, JAK3 (Homo sapiens, UniProt P52333).
T1 sequence (P52333 1-1124): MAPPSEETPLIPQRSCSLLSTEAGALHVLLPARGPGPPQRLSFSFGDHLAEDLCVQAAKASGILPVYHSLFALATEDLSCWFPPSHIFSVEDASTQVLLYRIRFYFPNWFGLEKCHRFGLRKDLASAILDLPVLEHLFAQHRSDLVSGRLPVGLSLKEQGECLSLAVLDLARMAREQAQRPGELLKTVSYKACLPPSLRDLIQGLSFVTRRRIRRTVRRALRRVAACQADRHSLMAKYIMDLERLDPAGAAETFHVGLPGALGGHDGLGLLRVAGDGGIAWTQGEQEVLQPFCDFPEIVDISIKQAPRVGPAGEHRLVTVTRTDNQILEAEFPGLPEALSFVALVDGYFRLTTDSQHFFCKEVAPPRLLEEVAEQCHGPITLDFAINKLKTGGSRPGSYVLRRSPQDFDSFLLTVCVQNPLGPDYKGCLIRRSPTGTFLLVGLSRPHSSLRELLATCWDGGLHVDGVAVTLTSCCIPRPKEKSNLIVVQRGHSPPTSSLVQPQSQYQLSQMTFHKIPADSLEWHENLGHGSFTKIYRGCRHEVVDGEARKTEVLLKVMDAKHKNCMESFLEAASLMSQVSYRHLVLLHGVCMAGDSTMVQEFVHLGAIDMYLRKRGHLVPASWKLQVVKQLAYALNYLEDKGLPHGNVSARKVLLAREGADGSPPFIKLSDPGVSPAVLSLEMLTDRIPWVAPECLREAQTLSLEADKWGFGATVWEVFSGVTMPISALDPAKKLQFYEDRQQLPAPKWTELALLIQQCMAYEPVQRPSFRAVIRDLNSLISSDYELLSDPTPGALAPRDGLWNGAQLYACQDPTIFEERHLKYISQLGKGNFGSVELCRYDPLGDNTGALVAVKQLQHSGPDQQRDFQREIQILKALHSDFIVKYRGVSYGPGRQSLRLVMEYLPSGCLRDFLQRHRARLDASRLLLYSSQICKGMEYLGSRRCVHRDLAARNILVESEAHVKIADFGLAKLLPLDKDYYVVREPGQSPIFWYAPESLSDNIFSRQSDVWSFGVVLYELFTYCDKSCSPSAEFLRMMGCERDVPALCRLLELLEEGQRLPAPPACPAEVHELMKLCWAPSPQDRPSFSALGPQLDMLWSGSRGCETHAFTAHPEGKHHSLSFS
Kind of test: Inhibition of a panel of kinases, in vitro HotSpot kinase assay: JAK3. To be noted: 1 μM ATP, read-out: JAK3 (IC50).

Another test concerns the target LCK (Homo sapiens, UniProt P06239). Kind of test: Inhibition of a panel of kinases, in vitro HotSpot kinase assay: LCK. To be noted: 1 μM ATP, read-out: LCK (IC50).
The target of a further test is T2, BTK-WT (Homo sapiens, UniProt Q06187).
T2 construct: purified from insect cells as a full-length construct containing an N-terminal 6X-His tag; His6 (N); made in house; host or cells: insect cells (baculovirus Sf21 in Method B)
Kind of test: Btk in vitro inhibitory activity (one of Method A TR-FRET, Method B electrophoretic mobility shift, Method C radiometric filter binding). The settings on record: read-out: BTK-WT (IC50). (In EMSA bound probe runs differently from free probe, usually more slowly.)

Chain of LCK (P06239 whole entry): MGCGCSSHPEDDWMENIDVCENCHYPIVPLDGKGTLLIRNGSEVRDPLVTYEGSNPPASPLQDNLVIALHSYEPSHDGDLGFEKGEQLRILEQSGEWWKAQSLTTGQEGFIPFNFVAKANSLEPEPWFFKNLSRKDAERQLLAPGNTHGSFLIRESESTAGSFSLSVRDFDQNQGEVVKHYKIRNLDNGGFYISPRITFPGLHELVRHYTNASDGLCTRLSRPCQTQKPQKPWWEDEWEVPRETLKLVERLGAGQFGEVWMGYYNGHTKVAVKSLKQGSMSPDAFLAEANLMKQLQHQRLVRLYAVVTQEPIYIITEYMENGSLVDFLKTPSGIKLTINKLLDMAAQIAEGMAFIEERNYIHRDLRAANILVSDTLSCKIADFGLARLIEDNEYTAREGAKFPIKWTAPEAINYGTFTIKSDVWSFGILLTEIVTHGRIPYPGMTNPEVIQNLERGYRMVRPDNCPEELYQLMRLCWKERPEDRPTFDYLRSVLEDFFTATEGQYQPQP
T2 sequence (Q06187 whole entry): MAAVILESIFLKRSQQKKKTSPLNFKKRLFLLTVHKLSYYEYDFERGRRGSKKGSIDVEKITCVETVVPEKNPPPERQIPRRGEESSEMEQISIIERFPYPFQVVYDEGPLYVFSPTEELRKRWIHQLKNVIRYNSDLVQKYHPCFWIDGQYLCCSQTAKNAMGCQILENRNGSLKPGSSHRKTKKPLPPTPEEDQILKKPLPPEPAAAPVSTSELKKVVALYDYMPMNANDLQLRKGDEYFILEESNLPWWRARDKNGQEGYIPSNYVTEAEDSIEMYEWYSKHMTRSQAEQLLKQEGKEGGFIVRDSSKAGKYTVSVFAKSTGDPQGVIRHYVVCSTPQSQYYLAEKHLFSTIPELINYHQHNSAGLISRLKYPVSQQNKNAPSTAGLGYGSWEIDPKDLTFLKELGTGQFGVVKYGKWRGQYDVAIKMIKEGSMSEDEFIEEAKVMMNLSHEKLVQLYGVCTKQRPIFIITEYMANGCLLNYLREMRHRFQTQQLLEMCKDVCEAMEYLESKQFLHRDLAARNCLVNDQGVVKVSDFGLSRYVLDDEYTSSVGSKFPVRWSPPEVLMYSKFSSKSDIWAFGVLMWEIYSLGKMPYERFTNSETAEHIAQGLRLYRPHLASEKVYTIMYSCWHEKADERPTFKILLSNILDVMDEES

As a reminder, the pIC50 is the negative decadic logarithm of the IC50, by convention in mol/L. `Cc1cc(Nc2nc(N[C@@H]3CCCN(C(=O)c4ccc(N(C)C)cc4)C3)cnc2C(N)=O)sn1` [Example C-7, 5-{[(3R)-1-[4-(dimethylamino)benzoyl]piperidin-3-yl]amino}-3-[(3-methyl-1,2-thiazol-5-yl)amino]pyrazine-2-carboxamide hydrochloride]: the pIC50 is under 5.00 at JAK3 (Table 12, Formula C-I); under 5.00 on LCK (Table 12, Formula C-I); under 5.00 at BTK-WT (Table 12, Formula C-I).

For `C=CC(=O)N[C@@H]1CCCN(c2cnc(C(N)=O)c(Nc3ccc(C4CCN(C5CCCC5)CC4)cc3)n2)[C@@H]1C` [Example A-85, 5-((2R,3R)-3-acrylamido-2-methylpiperidin-1-yl)-3-(4-(1-cyclopentylpiperidin-4-yl)phenylamino)pyrazine-2-carboxamide], the pIC50 on JAK3 (Table 10, Formula A-I) was over 7.00; at LCK (Table 10, Formula A-I), over 7.00; on BTK-WT (Table 10, Formula A-I), at least 7.00.

On to `Cc1cc(Nc2nc(N3CCC[C@@H](NC(=O)N4Cc5ccccc5C4)C3)cnc2C(N)=O)sn1` [Example A-17, N-[(3R)-1-{5-carbamoyl-6-[(3-methyl-1,2-thiazol-5-yl)amino]pyrazin-2-yl}piperidin-3-yl]-2,3-dihydro-1H-isoindole-2-carboxamide], for which the negative logarithm of the IC50 (pIC50) on JAK3 (Table 10, Formula A-I) is 6.00 to 7.00; at LCK (Table 10, Formula A-I), 6.00 to 7.00; on BTK-WT (Table 10, Formula A-I), at least 7.00.

`Cc1cc(Nc2nc(N[C@H]3CCCN(C(=O)c4ccc(N(C)C)cc4)C3)cnc2C(N)=O)sn1` [Example C-4, 5-{[(3S)-1-[4-(dimethylamino)benzoyl]piperidin-3-yl]amino}-3-[(3-methyl-1,2-thiazol-5-yl)amino]pyrazine-2-carboxamide]: the pIC50 was under 5.00 on JAK3 (Table 12, Formula C-I); under 5.00 on LCK (Table 12, Formula C-I); at least 7.00 on BTK-WT (Table 12, Formula C-I).

On to `Cc1cc(Nc2nc(N[C@@H]3CCCNC3)cnc2C(N)=O)sn1` [Example C-1, 3-[(3-methyl-1,2-thiazol-5-yl)amino]-5-{[(3R)-piperidin-3-yl]amino}pyrazine-2-carboxamide], for which the negative-log IC50 (pIC50) at JAK3 (Table 12, Formula C-I) was over 7.00; at LCK (Table 12, Formula C-I), over 7.00; on BTK-WT (Table 12, Formula C-I), at least 7.00.

For `CN1CCN(C(=O)c2ccc(Nc3nc(N[C@H]4CC[C@@H](NC(=O)N(C)C)CC4)cnc3C(N)=O)cc2)CC1` [Example B-16, 5-((1s,4s)-4-(3,3-dimethyl-ureido)cyclohexyl-amino)-3-(4-(4-methylpiperazine-1-carbonyl)phenylamino) pyrazine-2-carboxamide], the pIC50 on JAK3 (Table 11, Formula B-I) was 5.00 to 6.00; on LCK (Table 11, Formula B-I), over 7.00; on BTK-WT (Table 11, Formula B-I), at least 7.00.

`Cc1cccc(NC(=O)N[C@@H]2CCCN(c3cnc(C(N)=O)c(Nc4ccc(C5CCN(C6CCCC6)CC5)cc4)n3)C2)c1` [Example A-4, 3-{[4-(1-cyclopentylpiperidin-4-yl)phenyl]amino}-5-[(3R)-3-{[(3-methylphenyl)carbamoyl]amino}piperidin-1-yl]pyrazine-2-carboxamide hydrochloride]: the pIC50 is 6.00 to 7.00 at JAK3 (Table 10, Formula A-I); over 7.00 at LCK (Table 10, Formula A-I); at least 7.00 at BTK-WT (Table 10, Formula A-I).

With `Cc1cc(Nc2nc(N[C@H]3CCN(C(=O)N(C)C)C3)cnc2C(N)=O)sn1` [Example C-10, 5-{[(3S)-1-(dimethylcarbamoyl)pyrrolidin-3-yl]amino}-3-[(3-methyl-1,2-thiazol-5-yl)amino]pyrazine-2-carboxamide], the negative logarithm of the IC50 (pIC50) is 6.00 to 7.00 on JAK3 (Table 12, Formula C-I); 6.00 to 7.00 at LCK (Table 12, Formula C-I); at least 7.00 on BTK-WT (Table 12, Formula C-I).

As to `Cc1cc(Nc2nc(N(C)[C@H]3CCCN(C(=O)N(C)C)C3)cnc2C(N)=O)sn1` [Example C-8, 5-([(3S)-1-(dimethylcarbamoyl)piperidin-3-yl](methyl)amino)-3-[(3-methyl-1,2-thiazol-5-yl)amino]pyrazine-2-carboxamide], the pIC50 at JAK3 (Table 12, Formula C-I) was 5.00 to 6.00; on LCK (Table 12, Formula C-I), 5.00 to 6.00; on BTK-WT (Table 12, Formula C-I), 6.00 to 7.00.

With `Cc1cc(Nc2nc(N3CCC[C@@H](NC(=O)c4ccc(N(C)C)cc4)C3)cnc2C(N)=O)sn1` [Example A-21, 5-[(3R)-3-[4-(dimethylamino)benzamido]piperidin-1-yl]-3-[(3-methyl-1,2-thiazol-5-yl)amino]pyrazine-2-carboxamide], the negative logarithm of the IC50 (pIC50) was 6.00 to 7.00 at JAK3 (Table 10, Formula A-I); under 5.00 on LCK (Table 10, Formula A-I); at least 7.00 at BTK-WT (Table 10, Formula A-I).
